Experimental data taken from US5763435A, “Sulfate conjugates of ursodeoxycholic acid, and their beneficial use in inflammatory disorders” (priority 1995, dated 1998).

Key:
[1] = tested on: Principal Bile Acids in Liver; assay: Bile acid composition of liver tissue after oral administration (GC-MS); format: in vivo, Sprague-Dawley rats; conditions: for Chenodeoxycholic acid concentration in liver / Chenodeoxycholic acid percent of hepatic bile acids / Cholic acid concentration in liver / Cholic acid percent of hepatic bile acids / Deoxycholic acid concentration in liver / Deoxycholic acid percent of hepatic bile acids / Lithocholic acid concentration in liver / Lithocholic acid percent of hepatic bile acids / Total bile acid concentration in liver / UDCA percent of hepatic bile acids / Δ^22-UDCA concentration in liver / Δ^22-UDCA percent of hepatic bile acids / Δ^22-β-Muricholic acid concentration in liver / Δ^22-β-Muricholic acid percent of hepatic bile acids / Δ^22-ω-Muricholic acid concentration in liver / Δ^22-ω-Muricholic acid percent of hepatic bile acids / α-Muricholic acid concentration in liver / α-Muricholic acid percent of hepatic bile acids / β-Muricholic acid concentration in liver / β-Muricholic acid percent of hepatic bile acids / ω-Muricholic acid concentration in liver / ω-Muricholic acid percent of hepatic bile acids: oral gavage 250 mg/day, 4 days; for Hepatic UDCA concentration change (in words): oral, vs control
Experimental: (§1) Male Sprague-Dawley rats (Harlan Sprague-Dawley, Inc., Indianapolis, Ind.), weighing 210-290 g, were maintained on a 12-hour light-dark cycle and fed standard laboratory chow ad libitum for 3 days. The animals were then transferred to metabolic cages in which they were housed individually and fed the same diet. UDCA, UDCA 3-sulfate, UDCA 7-sulfate, and UDCA 3,7-disulfate were administered by gavage at a dose of 250 mg/day for 4 consecutive days. Each group comprised 3-6 rats. Body weights of the animals were measured each day. On day 5, the animals were killed by exsanguination under ether anesthesia. Plasma was collected and frozen at -20° C. The liver was removed, rinsed in normal saline, and flash-frozen in liquid nitrogen. Urine and feces were collected every 24 hours and frozen at -20° C. All animals received humane care in compliance with the "Guide for the Care and Use of Laboratory Animals" prepared by the National Academy of Sciences (National Institutes of Health publication no. 86-23, revised in 1985).
Samples of liver (100 mg) were ground to a fine paste, and bile acids were extracted by reflux and passage through a column of Lipidex 1000 as described above for intestinal contents and feces. Group separation of bile acids, according to their mode of conjugation was achieved by lipophilic anion-exchange chromatography. Extracts from each animal were pooled, and bile acids and their conjugates were separated using Lipidex-DEAP and stepwise elution of the gel bed with the following buffers: 0.1 mol/L acetic acid in 72% ethanol (unconjugated bile acids); 0.3 mol/L acetic acid in 72% ethanol, pH 5.0 (glycine conjugates); 0.15 mol/L acetic acid in 72% ethanol, pH 6.5 (taurine conjugates); and 0.3 mol/L acetic acid in 72% ethanol, pH 9.6 (sulfate conjugates). After evaporation of the buffers, sulfated bile acids were solvolyzed, whereas amidated conjugates were hydrolyzed with 50 U of cholylglycine hydrolase (Sigma Chemical Co.) in 2.5 mL of 0.2 mol/L phosphate buffer, pH 5.6, at 37° C. overnight. The resulting unconjugated bile acids were isolated on Lipidex-DEAP, and the methyl ester-trimethylsilyl ether derivatives were prepared as described above.
GC-MS analysis was performed using a Finnigan 4635 mass spectrometer (Finnigan Inc., San Jose, Calif.) that housed an identical gas chromatography column operated under the same conditions. Electron ionization (70 eV) mass spectra were recorded over the mass range of 50-800 daltons by repetitive scanning of the eluting components. Identification of bile acids was made on the basis of the gas chromatography retention index relative to a homologous series of n-alkanes, referred to as the methylene unit value, and the mass spectrum compared with authentic standards. Quantification of bile acids was achieved using gas chromatography by comparing the peak height response of the individual bile acids with the peak height response obtained from the internal standard.
Data are expressed as mean±SEM or as mean values of all animals when extracts were pooled before analysis. Results from different groups were compared using paired and unpaired two-tailed Student's t-test. P values of <0.05 were considered statistically significant.

fecal bile acids = assay: Fecal bile acid excretion after oral administration; format: in vivo, Sprague-Dawley rats; conditions: for Total fecal bile acid excretion: pooled feces day 4; for Fecal lithocholate/deoxycholate ratio (in words): vs control
Experimental: as §1
Intestinal contents were weighed and dissected into small pieces. In each group, feces (100 mg) from all animals were pooled on day 4 of the study and then ground into a fine paste. All samples were sonicated and sequentially refluxed in 80% methanol for 2 hours and chloroform/methanol (1:1) for 1 hour. Samples were taken to dryness, and the dried extracts were resuspended in 80% methanol (20 mL). Fractions of the methanolic extract (1/40 of intestinal contents and 1/20 of feces samples) were removed and the internal standard nordeoxycholic acid (10 μg) was added. This extract was diluted with 0.01 mol/L acetic acid (20 mL) and passed first through a column of Lipidex 1000 (bed size, 4×1 cm; Packard Instrument Co., Groningen, The Netherlands) and then through a Bond-Elut C18, cartridge (Analytichem, Harbor City, Calif.). Bile acids were recovered by elution of the Lipidex 1000 column and the Bond-Elut cartridge with methanol (20 mL and 5 mL, respectively), and the combined extracts were taken to dryness. Unconjugated bile acids were isolated and separated from neutral sterol and conjugated bile acids by lipophilic anion exchange chromatography on diethylaminohydroxypropyl Sephadex LH-20 (Lipidex-DEAP; Package Instrument Co.). Recovery of unconjugated bile acids was achieved by elution with 0.1 mol/L acetic acid in 72% ethanol (7 mL) followed by evaporation of the solvents. Total conjugated bile acids were recovered with 9 mL of 0.3 mol/L acetic acid in 72% ethanol, pH 9.6. Salts were removed by passage through a Bond-Elut C18 cartridge after addition of nordeoxycholic acid (10 μg), and conjugated bile acids were recovered by elution with 5 mL of methanol. Solvolysis was performed in a mixture of methanol (1 mL), distilled tetrahydrofuran (9 mL), and 1 mol/L trifluoracetic acid in dioxane (0.1 mL) and heated to 45° C for 2 hours. After solvolysis, unconjugated bile acids were isolated by chromatography on Lipidex-DEAP. Methyl ester derivatives were prepared by dissolving the sample in methanol (0.3 mL) and reacting with 2.7 mL of freshly distilled ethereal diazomethane. After evaporation of the reagents, the methyl ester derivatives were converted to trimethylsilyl ethers by the addition of […] of Tri-Sil reagent (Pierce Chemicals, Rockford, Ill.). A column of Lipidex 5000 (Packard Instrument Co.) was used to remove derivatizing reagents and to purify the sample.
GC-MS analysis was performed using a Finnigan 4635 mass spectrometer (Finnigan Inc., San Jose, Calif.) that housed an identical gas chromatography column operated under the same conditions. Electron ionization (70 eV) mass spectra were recorded over the mass range of 50-800 daltons by repetitive scanning of the eluting components. […]

Structure (SMILES) | Chenodeoxycholic acid concentration in liver [1] [nmol/g] | Chenodeoxycholic acid percent of hepatic bile acids [1] [%] | Cholic acid concentration in liver [1] [nmol/g] | Cholic acid percent of hepatic bile acids [1] [%] | Deoxycholic acid concentration in liver [1] [nmol/g] | Deoxycholic acid percent of hepatic bile acids [1] [%] | Lithocholic acid concentration in liver [1] [nmol/g] | Lithocholic acid percent of hepatic bile acids [1] [%] | Total bile acid concentration in liver [1] [nmol/g] | UDCA percent of hepatic bile acids [1] [%] | Δ^22-UDCA concentration in liver [1] [nmol/g] | Δ^22-UDCA percent of hepatic bile acids [1] [%] | Δ^22-β-Muricholic acid concentration in liver [1] [nmol/g] | Δ^22-β-Muricholic acid percent of hepatic bile acids [1] [%] | Δ^22-ω-Muricholic acid concentration in liver [1] [nmol/g] | Δ^22-ω-Muricholic acid percent of hepatic bile acids [1] [%] | α-Muricholic acid concentration in liver [1] [nmol/g] | α-Muricholic acid percent of hepatic bile acids [1] [%] | β-Muricholic acid concentration in liver [1] [nmol/g] | β-Muricholic acid percent of hepatic bile acids [1] [%] | further results
C[C@H](CCC(=O)O)[C@H]1CC[C@H]2[C@@H]3[C@@H](OS(=O)(=O)O)C[C@@H]4C[C@H](O)CC[C@]4(C)[C@H]3CC[C@]12C [UDCA-7S, ursodeoxycholic acid 7-sulfate] | 6.4 | 1.9 | 186.1 | 56.0 | 14.9 | 4.5 | 3.2 | 1.0 | 332.3 | 1.8 | 8.7 | 2.6 | 59.8 | 18.0 | 6.6 | 2.0 | 0.4 | 0.1 | 36.1 | 10.8 | ω-Muricholic acid concentration in liver [1]: 4.0 nmol/g; ω-Muricholic acid percent of hepatic bile acids [1]: 1.2%; Hepatic UDCA concentration change (in words) [1]: low compared with the control animals; Fecal concentration of total UDCA (in words) (fecal bile acids): markedly greater than that found in the feces of animals administered UDCA or UDCA 3-sulfate; Form of UDCA excreted in feces (fecal bile acids): excreted in feces virtually unchanged; Total fecal bile acid excretion (fecal bile acids): 12.65 mg/g feces; Fecal lithocholate/deoxycholate ratio (in words) (fecal bile acids): no change in the lithocholate/deoxycholate ratio
C[C@H](CCC(=O)O)[C@H]1CC[C@H]2[C@@H]3[C@@H](OS(=O)(=O)O)C[C@@H]4C[C@H](OS(=O)(=O)O)CC[C@]4(C)[C@H]3CC[C@]12C [UDCA-DS, ursodeoxycholic acid 3,7-disulfate] | 0.7 | 0.2 | 163.2 | 57.7 | 17.3 | 6.1 | 2.2 | 0.8 | 282.7 | 1.7 | 5.8 | 2.0 | 23.0 | 8.1 | 4.0 | 1.4 | 6.5 | 2.3 | 50.1 | 17.7 | ω-Muricholic acid concentration in liver [1]: 5.0 nmol/g; ω-Muricholic acid percent of hepatic bile acids [1]: 1.8%; Hepatic UDCA concentration change (in words) [1]: low compared with the control animals; Fecal concentration of total UDCA (in words) (fecal bile acids): markedly greater than that found in the feces of animals administered UDCA or UDCA 3-sulfate; Form of UDCA excreted in feces (fecal bile acids): excreted in feces virtually unchanged; Total fecal bile acid excretion (fecal bile acids): 10.88 mg/g feces; Fecal lithocholate/deoxycholate ratio (in words) (fecal bile acids): no change in the lithocholate/deoxycholate ratio
